Results on 2 compounds are retold here after US20240139185A1, “COMPOUNDS THAT PARTICIPATE IN COOPERATIVE BINDING AND USES THEREOF” (Revolution Medicines, Inc., priority 2018, published 2024).

Molecules are shown by their SMILES. pEC50: −log10 of the molar value. A value given as a limit tells only on which side of the number the result lay.

One assay deals with T1, KRAS-G12C (Homo sapiens, UniProt P01116+P62937, G12C).
T1 construct: CypA 1-165 (final concentration 5 μM)
Description: Percentage of crosslinking to KRAS-G12C in the presence of BME and CYPA (TOF-MS). Conditions: 5 min incubation; compound 2 μM, CypA 5 μM, G12C-GMPNP 0.5 μM, BME. It is filed as biochemical. On the procedure: • 1. 10×Incubation buffer: 125 mM HEPES pH 7.4, 750 mM NaCl, 10 mM MgCl2 • 2. 50 μM Protein A stock (CypA) in incubation buffer • 3. 5 μM Protein B (G12C-GMPNP) stock in incubation buffer • 4. 20 μM compound stock in 1×Incubation buffer with 10% DMSO • 5. 25 mM BME stock solution (prepared by diluting the BME stock in Milli Q water)
CypA 1-165 (final concentration 5 μM), test compound (final concentration 2 μM) and G12C-GMPNP (final concentration 0.5 μM) were incubated in the incubation buffer ([…]) for the requisite amount of time at room temperature. The samples were quenched with formic acid, final concentration 0.5%. 10 μL aliquots were injected to TOF-MS.
Sequence of Addition for a Final Incubation Volume of 50 μL • 1. 5 μL 10×incubation buffer • 2. 28 ul H2O • 3. 2 μL from 25 mM BME stock • 4. 5 μL CypA at 50 uM • 5. 5 μL from 5 μM G12C-GMPNP • 6. 5 μL compound from 20 μM compound stock
LC-MS is performed on an Agilent 6230 TOF-LC mass spectrometer equipped with an electrospray probe operated in positive ionization mode. 10 μL samples are injected on a Sepax Bio-C4, 300 Å, 2.1×100 mm column. The mobile phase is 0.1% (vol/vol) formic acid and 0.1% 1 mM ammonium formate in 95% water, 4.8% acetonitrile (A) and 0.1% (vol/vol) formic acid and 0.1% 1 mM ammonium formate in 95% acetonitrile and 4.8% water (B). The separation is performed by a 9 min total gradient consisting of 5 min linear gradient from 25% to 50% B, and a wash at 100% B for 1.25 min, all at a flow rate of 0.6 mL/min (see attached timetable below). Mass spectrometer source conditions were capillary voltage, 4,000 V; cone voltage, 120 V; source temperature, 275° C.; scan range, 100-2,000 a.m.u. with a cycle time of 1 s.
The observed mass is generated by averaging the major peak in the total ion current (TIC). The charge-state series of the species are deconvoluted using Agilent MassHunter Bioconfirm using maximum entropy setting (range is set to 17000-23000 Da). […]

Assay [1] addresses T2, BRAF-GTP-KRAS-G12C complex (Homo sapiens, UniProt P01116+P62937, G12C).
T2 construct: 50 nM of His6-KRas G12C-GTP (1-169); 500 nM of tagless CypA (1-165)
In words: KRAS-BRAF complex disruption through competition with CYPA-compound by TR-FRET. Conditions: biochemical BRAF-KRAS G12C-GTP disruption assay EC50, with CYPA. A digest of the protocol:
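His6-KRAS G12C-GTP (1-169, 50 nM) with tagless CypA (1-165, 500 nM) was incubated with compound for 3 h at room temperature in pH 7.3 Hepes/NaCl/MgCl2 buffer containing GST-BRAF RBD. Anti-His Eu (10 nM) and anti-GST APC (50 nM) were then added for 1.5 h, and the 665/615 nm TR-FRET ratio was read. EC50 from 4-parameter fit; for specificity, wild-type KRAS replaced G12C, and CypA was omitted to test presenter dependence.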
Background: Time-resolved FRET reads energy transfer from a long-lived donor to a nearby acceptor.

On to `CC1COC(=O)C2CCCN(N2)C(=O)C(NC(=O)C(C(C)C)N(C)C(=O)C2CN(C(=O)CCl)C2)Cc2cc(O)cc(c2)-c2ccc3c(c2)c(cn3CC2COC2)C1` (mixture of isomers) [Compound 226], for which the “% Crosslinking with KRAS-G12C-GTP in presence of CYPA, 5 min incubation” value at KRAS-G12C turned out to be 27%. Besides, the pEC50 in assay [1] was ≥ 6.30.

For `CC1COC(=O)C2CCCN(N2)C(=O)C(NC(=O)C(C(C)C)N(C)C(=O)C2CN(C(=O)CCl)C2)Cc2cc(O)cc(c2)-c2ccc3c(S(C)(=O)=O)cn(c3c2)C1` (single isomer, unassigned) [Compound 110], the “% Crosslinking with KRAS-G12C-GTP in presence of CYPA, 5 min incubation” value at KRAS-G12C amounted to 83%. Moreover, the pEC50 in assay [1] was ≥ 6.30.

A word on the pEC50: it is −log10 of the EC50, conventionally taken in molar units.
